Measurements: patent US20180140578A1, “METHODS AND COMPOSITIONS FOR THE DIAGNOSIS AND SELECTIVE TREATMENT OF CANCER” (Board of Regents of the University of Texas System, priority 2016, published 2018)

Columns and labels:
[1] = test system: pre-mRNA splicing in HCT-116 cells harboring RBM39 G268V; assay: RNA-seq analysis of splicing changes, RBM39 G268V; type: cell-based, human; conditions: 2 μM indisulam
Description: RNAs were extracted using Quick-RNA MiniPrep kit (Zymo Research). After cleaning up genomic DNA contaminant with Turbo DNase (Life Technologies) and rRNA depletion, strand-specific cDNA libraries were generated using the TruSeq Stranded mRNA Sample Prep Kit (IIlumina) and were subjected to high throughput sequencing using
HiSeq2500 platform (Illumina) with 100-bp single-end reads. NGS QC Toolkit (v2.3.1) (49) was used to check the sequencing quality, and high-quality reads were aligned by TopHat (v2.0.8) (50) to human reference genome (hg19) along with the gene annotation data downloaded from Illumina's iGenomes (support.illumina.com/sequencing/sequencing_software/igenome.ilmn). The insert-size metrics required in TopHat execution and the correctness of strand specificity were estimated by mapping reads to human transcript sequences using Bowtie (v2.1.0) (51) and Picard-tools (v1.99) (picard.sourceforge.net). The htseq-count script distributed with the HTSeq Python package (0.6.1) (pypi.python.org/pypi/HTSeq) was employed for counting reads in genes considering the coding strands. Source data for RNA sequencing data is available under NCBI SRA accession SRP096666.
For the stringent detection of differential skipped exons and retained introns, a custom program called SpliceFisher was developed and it is downloadable at github.com/jiwoongbio/SpliceFisher. […]

[2] = target: T1, DCAF15-3xFLAG and RBM39Δ150 (Homo sapiens, UniProt Q14498+Q66K64); assay: RBM39Δ150 pulldown assay; type: binding
T1 construct: Full-length cDNAs encoding CUL4A, CUL4B, DCAF15, and DDB1 were cloned into pLVX IRES Puro; made in house; host or cells: RBM39Δ150: Sf9 (baculovirus); DCAF15-3xFLAG: anti-FLAG beads from HCT-116 or 293T cells stably expressing it
Method: RBM39 lacking the first 150 amino acids after the start codon (RBM39Δ150) was cloned into the pFastBac1 (Life Technologies) vector. Site-directed Mutagenesis of RBM39 was performed using Q5 site-directed mutagenesis kit (NEB). DCAF15-GST (C-terminal GST tag) and DDB1 were also cloned into pFastBac1. The production of baculovirus was carried out following vendor's instructions. Protein was expressed in SF9 cells by infection with each protein specific baculovirus, and cells were harvested 48 hr later and frozen in liquid nitrogen. For purification of RBM39Δ150, frozen cells were pulverized by cryomill and resuspended in lysis buffer (40 mM Tris, pH 7.5, 225 mM NaCl, 1× […] Protease inhibitor). The lysate was passed through a 22 gauge needle 2 times followed by ultracentrifugation at 25000 rpm for 30 min. Clarified lysate was incubated with Ni-NTA agarose (Qiagen) for 30 min with rotation at 4° C. Resin and bound protein were washed with wash buffer 1 (40 mM Tris, pH 7.5, 225 mM NaCl) followed by wash buffer 2 (40 mM Tris, pH 7.5, 20 mM imidazole, 225 mM NaCl). Proteins were eluted with elution buffer (40 mM Tris, pH 7.5, 300 mM imidazole, 225 mM NaCl) and concentrated to 0.5 ml. Concentrated proteins were then fractionated on Superdex 200 Increase 10/300 GL (GE Healthcare). RBM39Δ150 and mutants eluted at 14.8 ml after injection and were stored at −80° C. in 40 mM Tris, pH 7.5, 225 mM NaCl. For purification of DCAF15-GST/DDB1, Sf9 cells co-infected with DCAF15-GST and DDB1 baculoviruses were lysed in PBS supplemented with 0.1% NP40, 1× […] Protease inhibitors, and 0.5 mM PMSF. The lysate was passed through a 22 gauge needle 2 times followed by centrifugation at 7000 rpm for 15 min. Clarified lysate was incubated with Glutathione Sepharose 4B resin (GE healthcare) for 30 min with rotation at 4° C. Resin was washed with PBS for three times before elution with 50 mM Tris, 10 mM glutathione, pH 8.
HCT-116 cells stably expressing DDB1-3xFLAG, CUL4A-3xFLAG, CUL4B-3xFLAG, or to DCAF15-3xFLAG were lysed in 1×PBS, 0.1% NP40, and 1× […] protease inhibitor (1 ml per […] plate). […]

T1 sequence (Q66K64 whole entry, stated change not applied): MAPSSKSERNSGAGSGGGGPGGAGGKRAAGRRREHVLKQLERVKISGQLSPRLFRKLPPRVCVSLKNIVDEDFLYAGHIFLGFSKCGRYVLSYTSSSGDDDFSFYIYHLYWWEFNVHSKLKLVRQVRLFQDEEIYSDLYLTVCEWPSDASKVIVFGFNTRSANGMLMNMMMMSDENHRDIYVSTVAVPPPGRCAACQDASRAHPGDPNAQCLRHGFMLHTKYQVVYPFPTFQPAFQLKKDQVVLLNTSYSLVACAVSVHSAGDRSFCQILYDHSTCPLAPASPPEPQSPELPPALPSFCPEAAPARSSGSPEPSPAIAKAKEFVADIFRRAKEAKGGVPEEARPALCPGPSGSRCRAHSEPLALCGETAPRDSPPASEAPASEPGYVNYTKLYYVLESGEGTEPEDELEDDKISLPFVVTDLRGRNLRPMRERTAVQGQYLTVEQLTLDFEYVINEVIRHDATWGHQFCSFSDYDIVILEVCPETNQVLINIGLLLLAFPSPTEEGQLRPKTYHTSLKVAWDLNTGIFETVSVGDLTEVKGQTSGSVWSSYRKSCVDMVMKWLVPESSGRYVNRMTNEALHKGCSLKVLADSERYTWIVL
T1 sequence (Q14498 151-530 limits assumed, stated change not applied): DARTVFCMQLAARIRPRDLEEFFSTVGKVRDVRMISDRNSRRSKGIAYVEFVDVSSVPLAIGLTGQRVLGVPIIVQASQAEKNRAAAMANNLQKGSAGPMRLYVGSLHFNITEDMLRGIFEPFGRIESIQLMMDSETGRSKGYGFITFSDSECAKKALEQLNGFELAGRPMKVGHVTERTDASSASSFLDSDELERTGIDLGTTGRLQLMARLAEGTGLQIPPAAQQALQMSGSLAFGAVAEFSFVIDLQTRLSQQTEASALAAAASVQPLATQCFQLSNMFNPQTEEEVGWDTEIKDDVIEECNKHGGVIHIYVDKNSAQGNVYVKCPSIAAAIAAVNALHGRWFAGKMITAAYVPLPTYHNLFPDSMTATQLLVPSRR
T1 sequence (Q16531 whole entry partner): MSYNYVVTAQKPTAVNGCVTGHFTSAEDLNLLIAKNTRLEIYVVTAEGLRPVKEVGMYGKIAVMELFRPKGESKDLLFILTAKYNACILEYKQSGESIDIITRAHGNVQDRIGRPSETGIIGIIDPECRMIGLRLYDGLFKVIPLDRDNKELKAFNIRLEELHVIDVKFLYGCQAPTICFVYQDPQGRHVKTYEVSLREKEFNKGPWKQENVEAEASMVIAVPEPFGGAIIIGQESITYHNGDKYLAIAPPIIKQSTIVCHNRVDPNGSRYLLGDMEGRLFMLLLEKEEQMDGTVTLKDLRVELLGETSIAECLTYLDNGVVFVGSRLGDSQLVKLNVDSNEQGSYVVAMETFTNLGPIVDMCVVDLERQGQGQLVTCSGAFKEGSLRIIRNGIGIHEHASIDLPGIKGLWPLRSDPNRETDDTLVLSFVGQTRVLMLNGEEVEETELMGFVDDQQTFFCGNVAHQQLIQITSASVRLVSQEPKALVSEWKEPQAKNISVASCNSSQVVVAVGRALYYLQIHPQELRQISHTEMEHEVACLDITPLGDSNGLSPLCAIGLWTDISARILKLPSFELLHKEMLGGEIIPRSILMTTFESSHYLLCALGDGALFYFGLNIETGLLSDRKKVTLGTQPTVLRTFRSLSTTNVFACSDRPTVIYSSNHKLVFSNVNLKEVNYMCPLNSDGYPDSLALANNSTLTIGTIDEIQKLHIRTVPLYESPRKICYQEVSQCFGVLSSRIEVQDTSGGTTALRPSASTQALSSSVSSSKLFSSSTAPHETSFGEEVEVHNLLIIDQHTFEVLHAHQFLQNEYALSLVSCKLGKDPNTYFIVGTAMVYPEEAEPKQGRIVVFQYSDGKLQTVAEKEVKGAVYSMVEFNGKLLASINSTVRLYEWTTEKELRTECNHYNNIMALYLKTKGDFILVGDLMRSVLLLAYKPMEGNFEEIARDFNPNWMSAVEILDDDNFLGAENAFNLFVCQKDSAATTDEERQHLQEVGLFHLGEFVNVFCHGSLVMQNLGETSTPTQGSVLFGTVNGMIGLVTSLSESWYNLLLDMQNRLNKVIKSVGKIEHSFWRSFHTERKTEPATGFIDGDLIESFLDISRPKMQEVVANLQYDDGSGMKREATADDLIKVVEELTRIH

NS(=O)(=O)c1ccc(S(=O)(=O)Nc2cccc3c(Cl)c[nH]c23)cc1 [Indisulam, indisulam]
exon skipping events ([1]; HCT-116 RBM39 G268V): 3
intron retention events ([1]; cells expressing the RBM39 G268V allele): no intron retention event
co-purification of DCAF15 with RBM39Δ150 ([2]; in the presence of indisulam, not DDB1, CUL4A or CUL4B): co-purified
indisulam concentration at which RBM39Δ150-DCAF15 complex was apparent ([2]; wild type RBM39Δ150): 0.10 µM
